# Several values for one entry are separate records, joined by “and”; a condition that tells them apart may be missing. Equal values may be shown once.
# Key:
# [1] = biological target: T1, human recombinant adrenergic α2B receptor (Homo sapiens, UniProt P18089); test: Adrenergic α2B radioligand binding ([3H]Rauwolscine); details: 1 μM; for inhibition at 1 µM: read-out: Adrenergic α2B, inhibition of ligand binding (1 μM)
# T1 construct: expressed in transfected cells; host or cells: CHO-K1 cells
# T1 sequence (P18089 1-450): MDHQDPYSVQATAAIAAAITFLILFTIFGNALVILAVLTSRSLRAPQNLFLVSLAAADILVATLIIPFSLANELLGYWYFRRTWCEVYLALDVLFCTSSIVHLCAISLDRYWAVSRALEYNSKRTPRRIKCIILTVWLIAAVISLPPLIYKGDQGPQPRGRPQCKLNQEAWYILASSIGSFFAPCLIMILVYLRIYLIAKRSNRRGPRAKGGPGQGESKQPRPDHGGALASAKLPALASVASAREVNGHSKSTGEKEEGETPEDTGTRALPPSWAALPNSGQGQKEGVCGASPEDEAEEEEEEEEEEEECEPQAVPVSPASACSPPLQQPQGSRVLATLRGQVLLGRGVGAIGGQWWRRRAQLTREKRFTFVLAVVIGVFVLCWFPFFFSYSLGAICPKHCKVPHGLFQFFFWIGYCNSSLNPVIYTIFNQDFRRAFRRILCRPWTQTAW
# Description: To evaluate in radioligand binding assays the activity of compounds of the invention, human recombinant adrenergic α2B receptor expressed in Chinese hamster ovary (CHO-K1) cells (Uhlen S et al. Eur J. Pharmacol. 343(1):93, 1998) in a modified Tris-HCl buffer (50 mM Tris-HCl, pH 7.4, 12.5 mM MgCl2, 1 mM EDTA, 0.2% BSA) was used. Compounds of the invention were incubated with 2.5 nM [^3H]Rauwolscine for 60 minutes at 25° C. Non-specific binding was estimated in the presence of 10 μM Prozosin. Receptor proteins were filtered and washed, the filters were then counted to determine [^3H]Rauwolscine specifically bound. Compounds were screened at 1 μM or lower, using 1% DMSO as vehicle. Biochemical assay results are presented as the percent inhibition of specific binding in Table 3.
# [2] = biological target: T2, human recombinant adrenergic α2A receptor (Homo sapiens, UniProt P08913); test: Adrenergic α2A radioligand binding ([3H]MK-912); details: 1 μM; for inhibition at 1 µM: read-out: Adrenergic α2A, inhibition of ligand binding (1 μM)
# T2 construct: expressed in transfected cells; host or cells: insect Sf9 cells
# T2 sequence (P08913 1-465): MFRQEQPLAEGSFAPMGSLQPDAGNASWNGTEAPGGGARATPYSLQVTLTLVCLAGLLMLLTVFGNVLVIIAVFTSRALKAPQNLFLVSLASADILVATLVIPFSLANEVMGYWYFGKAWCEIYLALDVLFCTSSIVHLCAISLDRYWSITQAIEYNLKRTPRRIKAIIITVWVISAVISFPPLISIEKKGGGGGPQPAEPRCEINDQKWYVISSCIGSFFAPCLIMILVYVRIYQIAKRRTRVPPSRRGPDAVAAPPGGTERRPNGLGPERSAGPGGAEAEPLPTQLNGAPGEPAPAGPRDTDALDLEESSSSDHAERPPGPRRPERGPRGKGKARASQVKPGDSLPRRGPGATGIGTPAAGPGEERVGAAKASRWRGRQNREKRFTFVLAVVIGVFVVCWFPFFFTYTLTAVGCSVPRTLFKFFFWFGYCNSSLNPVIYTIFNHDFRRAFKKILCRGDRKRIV
# Description: To evaluate in radioligand binding assays the activity of compounds of the invention, human recombinant adrenergic α2A receptor expressed in insect Sf9 cells (Uhlen S et al. J Pharmacol Exp Ther. 271:1558, 1994) in a modified Tris-HCl buffer (50 mM Tris-HCl, pH 7.4, 12.5 mM MgCl2, 2 mM EDTA) was used. Compounds of invention were incubated with 1 nM [^3H]MK-912 for 60 minutes at 25° C. MK912 is (2S-trans)-1,3,4,5′,6,6′,7,12b-octahydro-1′,3′-dimethyl-spiro[2H-benzofuro[2,3-a]quinolizine-2,4′(1′H) -pyrimidin]-2′(3′H)-one hydrochloride Non-specific binding was estimated in the presence of 10 μM WB-4101 (2-(2,6-Dimethoxyphenoxyethyl)aminomethyl-1,4-benzodioxane hydrochloride). Receptor proteins were filtered and washed, the filters were then counted to determine [^3H]MK-912 specifically bound. Compounds were screened at 1 μM or lower, using 1% DMSO as vehicle. Biochemical assay results are presented as the percent inhibition of specific binding in Table 3.
# [3] = biological target: T3, human recombinant serotonin (5-Hydroxytryptamine) 5-HT6 receptor (Homo sapiens, UniProt P50406); test: Serotonin 5-HT6 radioligand binding ([3H]LSD); details: for inhibition at 1 µM: read-out: Serotonin 5-HT6, inhibition of ligand binding (1 μM)
# T3 construct: expressed in transfected cells; host or cells: human HeLa cells
# T3 sequence (P50406 whole entry): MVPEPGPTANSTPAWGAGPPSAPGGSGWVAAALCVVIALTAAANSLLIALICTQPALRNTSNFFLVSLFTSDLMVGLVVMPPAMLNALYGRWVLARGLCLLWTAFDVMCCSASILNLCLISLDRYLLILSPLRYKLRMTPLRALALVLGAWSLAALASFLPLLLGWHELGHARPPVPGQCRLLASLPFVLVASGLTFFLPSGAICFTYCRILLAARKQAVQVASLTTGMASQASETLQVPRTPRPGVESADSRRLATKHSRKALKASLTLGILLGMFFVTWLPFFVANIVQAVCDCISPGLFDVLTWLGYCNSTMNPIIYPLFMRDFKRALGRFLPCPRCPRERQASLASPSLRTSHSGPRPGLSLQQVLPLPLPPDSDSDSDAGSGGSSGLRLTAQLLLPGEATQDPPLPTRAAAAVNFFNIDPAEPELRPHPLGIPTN
# Description: To evaluate in radioligand binding assays the activity of compounds of the invention, human recombinant serotonin (5-Hydroxytryptamine) 5-HT6 receptor expressed in human HeLa cells (Monsma, F. J. Jr. et al., Mol. Pharmacol. 43:320, 1993) in a modified Tris-HCl buffer (50 mM Tris-HCl, pH 7.4, 150 mM NaCl, 2 mM Ascorbic Acid, 0.001% BSA) was used. Compounds of the invention were incubated with 1.5 nM [3H]Lysergic acid diethylamide (LSD) for 120 minutes at 37° C. Non-specific binding was estimated in the presence of 5 μM Serotonin (5-HT). Receptor proteins were filtered and washed, the filters were then counted to determine [3H]LSD specifically bound. Compounds were screened at 1 μM or lower, using 1% DMSO as vehicle. Biochemical assay results are presented as the percent inhibition of specific binding in Table 4.
# [4] = biological target: T4, human recombinant dopamine D2L receptor (Homo sapiens, UniProt P14416); test: Dopamine D2L radioligand binding ([3H]Spiperone); details: read-out: Dopamine (1 μM) D2L, inhibition of ligand binding
# T4 construct: expressed in transfected cells; host or cells: CHO cells
# T4 sequence (P14416 whole entry): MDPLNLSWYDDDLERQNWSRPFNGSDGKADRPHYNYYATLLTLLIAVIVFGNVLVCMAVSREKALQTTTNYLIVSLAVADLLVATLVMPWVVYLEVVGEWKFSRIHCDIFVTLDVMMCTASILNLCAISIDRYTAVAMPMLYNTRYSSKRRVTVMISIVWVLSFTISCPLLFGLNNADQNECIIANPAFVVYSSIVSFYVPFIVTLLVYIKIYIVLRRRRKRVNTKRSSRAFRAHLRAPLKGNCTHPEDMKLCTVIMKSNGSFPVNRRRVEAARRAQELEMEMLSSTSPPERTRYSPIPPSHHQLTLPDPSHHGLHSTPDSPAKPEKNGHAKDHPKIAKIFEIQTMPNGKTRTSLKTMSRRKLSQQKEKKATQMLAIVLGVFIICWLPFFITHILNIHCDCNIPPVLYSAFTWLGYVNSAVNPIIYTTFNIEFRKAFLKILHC
# Description: To evaluate in radioligand binding assays the activity of compounds of the invention, human recombinant dopamine D2L receptor expressed in Chinese hamster ovary (CHO) cells (Grandy, D. K. et al. Proc. Natl. Acad. Sci. USA. 86:9762, 1989; Hayes, G. et al., Mol. Endocrinol. 6:920, 1992) in a modified Tris-HCl buffer (50 mM Tris-HCl, pH 7.4, 1.4 mM Ascorbic Acid, 0.001% BSA, 150 mM NaCl) was used. Compounds of the invention were incubated with 0.16 nM [^3H]Spiperone for 120 minutes at 25° C. Non-specific binding was estimated in the presence of 10 μM Haloperidol. Receptor proteins were filtered and washed, the filters were then counted to determine [^3H]Spiperone specifically bound. Compounds were screened at 1 μM or lower, using 1% DMSO as vehicle. Biochemical assay results are presented as the percent inhibition of specific binding in Table 3.
Compound,inhibition at 1 µM [1] [%],inhibition at 1 µM [2] [%],inhibition at 1 µM [3] [%],inhibition at 1 µM [4] [%],"Adrenergic α2B, inhibition of ligand binding (1 μM) [1] [%]","Adrenergic α2A, inhibition of ligand binding (1 μM) [2] [%]","Serotonin 5-HT6, inhibition of ligand binding (1 μM) ([3]; 1 µM)"
Cc1ccc2c(c1)c1c(n2CCc2ccc(F)cc2)CC2CCC1N2C (centres unmarked) [Compound 62],104,96,71,41,–,–,–
"CCOC(=O)CCn1c2c(c3cc(Cl)ccc31)C1CCC(C2)N1C (centres unmarked) [Compound 70, ethyl 3-(2-chloro-11-methyl-5,6,7,8,9,10-hexahydro-7,10-iminocyclohept[b]indol-5-yl)propanoate]",51,3,3,-3,–,–,–
Cc1ccc2c(c1)c1c(n2CCc2ccc(C(F)(F)F)nc2)CC2CCC1N2C (centres unmarked) [Compound 71],99,28,–,-2,98.0,48.0,8.0/ % and 2.0%
CN1C2CCC1c1c(n(CCC(=O)O)c3ccc(Cl)cc13)C2 (centres unmarked) [Compound 72],-8,6,-1,3,–,–,–
CN1C2CCC1c1c(n(CCC(N)=O)c3ccc(Cl)cc13)C2 (centres unmarked) [Compound 73],73,6,-4,-4,–,–,–
CN1C2CCC1c1c(n(CCc3ccc(C(F)(F)F)nc3)c3cc(F)c(Cl)cc13)C2 (centres unmarked) [Compound 77],75,30,21,4,–,–,–
Cc1ccc(CCn2c3c(c4cc(Cl)ccc42)C2CCC(C3)N2C)cn1 (centres unmarked) [Compound 79],87,14,10,9,–,–,–
CN1C2CCC1c1c(n(CCc3cccnc3)c3ccc(Cl)cc13)C2 (centres unmarked) [Compound 80],95,21,6,-3,–,–,–
Cc1ccc2c(c1)c1c(n2CCc2cnc(C)nc2)CC2CCC1N2C (centres unmarked) [Compound 81],40,-5,12,9,–,–,–
Cc1ncc(CCn2c3c(c4cc(Cl)ccc42)C2CCC(C3)N2C)cn1 (centres unmarked) [Compound 82],47,5,13,2,–,–,–
COc1ccc(CCn2c3c(c4cc(C)ccc42)C2CCC(C3)N2C)cc1 (centres unmarked) [Compound 83],94,77,23,12,–,–,–
COc1ccc(CCn2c3c(c4cc(Cl)ccc42)C2CCC(C3)N2C)cc1 (centres unmarked) [Compound 84],98,76,13,-6,–,–,–
Cc1ccc2c(c1)c1c(n2CCCc2ccc(Cl)cc2)CC2CCC1N2C (centres unmarked) [Compound 85],92,73,52,-2,–,–,–
Cc1ccc2c(c1)c1c(n2CCc2cccnc2)CC2CCC1N2C (centres unmarked) [Compound 86],106,63,60,4,–,–,–
CN1C2CCC1c1c(n(CCc3cncc(Cl)c3)c3ccc(Cl)cc13)C2 (centres unmarked) [Compound 87],98,21,23,-6,–,–,–
Cc1ccc2c(c1)c1c(n2CCc2cncc(Cl)c2)CC2CCC1N2C (centres unmarked) [Compound 88],104,32,25,4,–,–,–
Cc1cncc(CCn2c3c(c4cc(Cl)ccc42)C2CCC(C3)N2C)c1 (centres unmarked) [Compound 89],76,5,10,9,–,–,–
Cc1cncc(CCn2c3c(c4cc(C)ccc42)C2CCC(C3)N2C)c1 (centres unmarked) [Compound 90],75,26,6,-4,–,–,–
Cc1ccc2c(c1)c1c(n2CC(O)c2ccc(C)nc2)CC2CCC1N2C (centres unmarked) [Compound 91],67,29,-5,-5,–,–,–
Cc1ccc(CCn2c3c(c4ccccc42)C2CCC(C3)N2C)cn1 (centres unmarked) [Compound 92],34,15,3,0,–,–,–
Cc1ccc2c(c1)c1c(n2CC(=O)N2CCCCC2)CC2CCC1N2C (centres unmarked) [Compound 93],-6,4,-4,-19,–,–,–
"CN1[C@@H]2CC[C@H]1c1c(n(CCc3ccc(F)cc3)c3ccc(F)cc13)C2 [Compound 94, (+)-(7S,10R)-2-Fluoro-5-(4-fluorophenethyl)-11-methyl-5,6,7,8,9,10-hexahydro-7,10-iminocyclohept[b]indole]",102,56,21,14,–,–,–
"CN1[C@H]2CC[C@@H]1c1c(n(CCc3ccc(F)cc3)c3ccc(F)cc13)C2 [Compound 95, (−)-(7R,10S)-2-Fluoro-5-(4-fluorophenethyl)-11-methyl-5,6,7,8,9,10-hexahydro-7,10-iminocyclohept[b]indole]",36,65,41,50,–,–,–
CN1[C@@H]2CC[C@H]1c1c(n(CCc3ccc(C(F)(F)F)nc3)c3ccccc13)C2 [Compound 97],103,26,8,-10,–,–,–
